Laboratory results published in patent US8628961B2, “Small molecule antagonists of phosphatidylinositol-3,4,5-triphosphate (PIP3) and uses thereof” (Tufts University, priority 2010, dated 2014).

Assays:
Akt PH domain [1] = target: T1, Akt PH domain (Homo sapiens (Human), UniProt P31749); experiment: Fluorescence polarization (FP) PIP3/Akt PH domain binding assay; conditions: for IC50: 15 nM TMR-conjugated PIP3, PITs 6.25-200 μM, 30 min
Excerpt: (§1) In order to identify compounds that disrupt the interaction between PIP3 and PH domains, a high-throughput fluorescence polarization (FP)-binding assay was developed using recombinant 1-123 amino acid N-terminal fragment of human Akt1 (also referred to herein simply as Akt), encompassing the PH domain (PH123 protein), and fluorescent […] PIP3 molecule. The amino acid sequence of human Akt1 is publicly available as, for example, GenBank Accession No. NP_001014432.1 (SEQ ID NO:1), and the corresponding DNA sequence is publicly available as, for example, GenBank Accession No. NM_001014432. Briefly, 5 μM recombinant GST fusion proteins containing 1-123 a.a. N-terminal fragment of human Akt1 (PH 123) or 100 nM 441-551 a.a. region of human PDK1 were incubated with 15 nM TMR-labeled PIP3, PIP2, or PIP5 in buffer containing 50 mM Tris-HCl (pH 7.5), 150 mM NaCl, and 5 mM b-ME for 15 min at room temperature in the dark. FP values were determined using Wallac Victor 3 plate reader. For the primary screen, 50,000 diverse small molecules from Harvard Institute of Chemistry and Cell Biology were screened (iccb.med.harvard.edu). Incubations were carried out for 1 hr. For secondary assays, PIT compounds were added at various concentrations (6.25, 12.5, 25, 50, 100, 150 and 200 μM), followed by a 30 min incubation. The inhibition rates were calculated as inhibition rate=[1−(compound-treated group/control group)]×100%, and IC50 value was determined using Origin6 software (MicroCal, LLC, Northampton, Mass.).
Target sequence in this assay (P31749 1-123): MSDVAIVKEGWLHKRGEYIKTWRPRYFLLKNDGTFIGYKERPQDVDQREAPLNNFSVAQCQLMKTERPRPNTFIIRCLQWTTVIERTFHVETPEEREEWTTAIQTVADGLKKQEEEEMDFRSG

PDK1 PH domain = PDK1 PH domain (Homo sapiens (Human), UniProt O15530); experiment: FP PIP3/PDK1 PH domain binding assay; conditions: 15 nM TMR-conjugated PIP3, 100 nM PDK1 PH domain, 30 min
PDK1 PH domain, sequence (O15530 441-551): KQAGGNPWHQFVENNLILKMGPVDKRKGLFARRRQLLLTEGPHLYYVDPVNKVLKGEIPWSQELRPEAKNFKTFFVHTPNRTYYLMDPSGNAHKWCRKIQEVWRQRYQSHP
Excerpt: as §1

GRP1 PH domain = GRP1 PH domain (Homo sapiens, UniProt O43739); experiment: FP PIP3/GRP1 PH domain binding assay; conditions: 15 nM TMR-conjugated PIP3, 100 nM GRP1 PH domain, 30 min
U87MG cells [2] = experiment: cells; assay type: cell-based; conditions: for IC50: Homo sapiens, U-87 MG, U87MG cells, 48 hr, ATP assay, read-out: Cell Viability IC50
Experimental: Based on the critical role of PIP3-dependent […] signaling in the regulation of cell survival, the effect of PIT-1 on the cancer cell viability was tested. Cancer cells were seeded into 96-well plates (white plates for ATP assay; black plates for fluorescent assay; clear plates for MTS assay) at the density of 5-10×10^3 cells per well in 100 μl of the appropriate media. Compounds were added at a series of concentrations and incubated for different times. For the ATP assay, a luminescence-based commercial kit (CellTiter-Glo, Promega, Madison, Wis.) was used. Thirty microliters of cell lysis/ATP detection reagent was added to each well, mixed for 10 min at room temperature, and the luminescence was measured using a Wallac Victor 3 plate reader (Perkin-Elmer, Wellesley, Mass.). For the MTS assay, a CellTiter 96 AQueous Non-Radioactive Cell Proliferation Assay Kit (Promega, Madison, Wis., USA) was used. Twenty microliters of the combined MTS/PMS solution was added into each well, incubated for 4 hr at 37° C., and the absorbance at 490 nm was measured using a Wallac Victor 3 plate reader. For the Sytox cell death assay, measuring loss of plasma membrane integrity, cells were incubated with 1 μM Sytox Green reagent (Molecular Probes, Eugene, Oreg.) for 30 min at 37° C. and the fluorescence intensity was measured using Wallac Victor 3 plate reader with excitation at 485 nm and emission at 545 nm. Next, 5 μl of 20% (v/v) Triton X-100 solution was added to each well and incubated for 1 hr at 37° C., and the signal was measured again. The ratio of values (percentage of dead cells in each well) before and after Triton X-100 treatment was calculated and normalized to the relevant controls not subjected to the cytotoxic stimuli. IC50 values were determined using Origin6 software (MicroCal, LLC, Northampton, Mass.).
To measure induction of cell death by PIT-1 derivatives, U87MG cells were incubated with PITs (1.56-300 μM) for 48 hr. Cell viability was determined using ATP assay.

PI3K-PDK1-Akt pathway = experiment: PIP3-regulated phosphorylation events in U87MG cells; assay type: cell-based, human
Experimental: The effect of PIT-1 on PIP3-mediated signaling was examined in U87MG glioblastoma cells, which show elevated basal levels of PIP3 due to the loss of PTEN. Pore N et al. (2003) Cancer Res 63:236-41.

[3] = Solubility (aqueous, cell media); assay type: physicochemical; conditions: 300 μM unencapsulated
Excerpt: The size of the DM-PIT-1-loaded micelles was about 15 nm with a narrow size distribution.

4T1 breast tumor = experiment: Syngeneic 4T1 breast cancer growth in BALB/c mice; assay type: in vivo
Experimental: The effect of intravenous (i.v.) administration of both unencapsulated DM-PIT-1 in PBS and DM-PIT-1-M on the syngeneic 4T1 breast cancer growth in BALB/c mice was examined. 4T1 metastatic breast cancer cells were first cultured in vitro in DMEM medium containing 10% FBS and antibiotics. After re-suspension in PBS, the 4T1 cancer cells (8×10^4) were injected s.c. into axillary regions of BALB/c mice. The treatment with PIT-1 began on day 11 after inoculation of tumor cells, i.e., when tumors were palpable, but before tumors are precisely measurable (˜50 mm^3). Working solutions of all PIT-1-formulations were made in sterile 0.9% NaCl before injection into mice. […] If the tumor size reached approx. 1000 mm^3, the mice were euthanized using carbon dioxide (CO2) prior to cervical dislocation. Seven mice per group were used. The tumor volume (V) was measured every two days by microcaliper for 8 days. Tumor volume was calculated according to the formula (α×b^2)/2, where α is the longest and b is the shortest diameter of tumor, respectively. Tumor tissues were fixed in phosphate-buffered formalin, embedded in paraffin, cut in 4 μm thickness, and applied to slides. The slides were deparaffinized in xylenes using three changes for 5 min each, and hydrated gradually through graded alcohols: 100% ethanol twice for 10 min each, 95% ethanol twice for 10 min each, and then deionized water for 1 min with stirring. For antigen unmasking, slides were placed in a container, covered with 10 mM sodium citrate buffer, pH 6.0, and heated in a convection steamer for 1 hr. The slides were washed in deionized water three times for 2 min each, blocked with 5% normal goat blocking serum for 30 min, incubated with goat anti-CD31 primary antibody for 1 hr, and incubated with an Alexa Fluor 488-conjugated secondary antibody for 30 min. The slides were analyzed and photographed using a fluorescent microscope. TUNEL staining was performed using FragEL kit according to manufacturer's instructions (Calbiochem).

Akt PH domain [4] = target: T1, Akt PH domain; experiment: PH domain translocation assay (GFP fusion, plasma membrane); assay type: cell-based; conditions: PDGF stimulation
Experimental: Cells were transfected with the corresponding GFP-fusion vectors, serum starved overnight, and incubated with 100 μM PITs or PIT-1 is for 2 hr, followed by stimulation with 100 ng/ml PDGF or 250 ng/ml PMA for 5 min. The translocation was analyzed using fluorescent microscope and was quantitated by counting the number of cells with translocated PH domains in five random fields.
To begin characterizing cellular activity of PITs, a PH domain translocation assay was performed, measuring PIP3-induced association of GFP-fused PH domains with the plasma membrane. […] Varnai P et al. (1999) J Biol Chem 274:10983-9. Several PH-domain-containing proteins, which are known to bind PIP3 specifically and efficiently, were examined. […] Oikawa T et al. (2004) Nat Cell Biol 6:420-6.
Target sequence in this assay (P31749 5-108): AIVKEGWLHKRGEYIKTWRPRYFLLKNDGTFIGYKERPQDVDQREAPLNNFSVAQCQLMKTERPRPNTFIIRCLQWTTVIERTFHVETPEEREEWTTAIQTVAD

U87MG cells [5] = experiment: Combination with Akt kinase inhibitors in U87MG cells (western blot, ATP assay); assay type: cell-based, human
Experimental: U87MG cells were treated with 100 μM PIT-1, or 10 μM Akt inhibitor VIII (Calbiochem) or Akt inhibitor (Calbiochem), or 100 μM PIT-1 together with 10 μM Akt inhibitor VIII or Akt inhibitor, for 12 hr and then phosphorylation events were evaluated by western blot.

U87MG cells [6] = experiment: Sensitization of U87MG cells to TRAIL, ATP assay; assay type: cell-based, human
Experimental: FIG. 10 is a bar graph depicting that PITs, as well as Akt inhibitor VIII, sensitize U87MG cells to killing by TRAIL. U87MG cells were incubated with 50 μM PIT-1, PIT-2, PIT-1i-1 or 10 μM Akt inhibitor VIII in the presence or absence of 10 ng/ml TRAIL for 48 hr, followed by cell viability analysis using ATP assay.
Upregulation of PI3K/Akt signaling is an important mechanism of chemoresistance of cancer cells. Blume-Jensen P et al. (2001) Nature 411:355-65; Osaki M et al. (2004) Apoptosis 9:667-76. […] Puduvalli V K et al. (2005) Apoptosis 10:233-43 TRAIL represents a particularly promising anti-cancer agent due to its intrinsic selectivity towards cancer cells which is associated with the expression of the decoy receptors by many (but not all) normal cells. Abe K et al. (2000) Ann NY Acad Sci 926:52-63. […] Oka N et al. (2005) Cancer Res 65:7546-53.

Molecule	IC50 (Akt PH domain [1]) [µM]	IC50 (PDK1 PH domain) [µM]	IC50 (GRP1 PH domain) [µM]	IC50 (U87MG cells [2]) [µM]	Akt potency and selectivity compared to PIT-1 (Akt PH domain [1])	melting point [°C]	other results
Cc1cc(C)cc(C(=O)NC(=S)Nc2cc(-c3ccccc3)ccc2O)c1 [PIT-7, N-(4-Hydroxybiphenyl-3-ylcarbamothioyl)-3,5-dimethylbenzamide]	13.4 ± 2.1	52.3 ± 2.3	> 200	6.6 ± 0.3	–	–	cytotoxicity / reduction of cancer cell viability relative to other PITs (U87MG cells [2]): strongest activity; PI3K-PDK1-Akt signaling in U87MG cells (PI3K-PDK1-Akt pathway): strongest activity
Cc1cc(C)cc(C(=O)NC(=S)Nc2cc(C(F)(F)F)ccc2O)c1 [PIT-4, N-(2-Hydroxy-5-(trifluoromethyl)phenylcarbamothioyl)-3,5-dimethylbenzamide]	22.6 ± 3	> 200	> 200	20.7 ± 3.3	improved Akt potency and selectivity compared to PIT-1	208 to 209	–
Cc1cc(C)cc(C(=O)NC(=S)Nc2c(O)cc(C)c(Cl)c2C)c1 [PIT-3, N-(3-Chloro-6-hydroxy-2,4-dimethylphenylcarbamothioyl)-3,5-dimethylbenzamide]	17.5 ± 1.6	107 ± 3.9	> 200	12.4 ± 0.9	improved Akt potency and selectivity compared to PIT-1	185 to 186	–
Cc1cc(C)cc(C(=O)NC(=S)Nc2cc([N+](=O)[O-])ccc2O)c1 [DM-PIT-1]	27.1 ± 3.2	80.5 ± 3.1	35.5 ± 3.8	33.9 ± 2.2	–	–	activity compared to PIT-1 (U87MG cells [2]; cell death in U87MG cells, cell migration, PI3K-PDK1-Akt signaling): increased activity in these assays compared to PIT-1; precipitation in cell media [3]: significant precipitation; reduction of tumor volume compared to control (4T1 breast tumor; day 8, 0.4 mg/kg/day i.v.): 58.1%; tumor volume (4T1 breast tumor; day 8, 0.4 mg/kg/day i.v.): 380±52.3 mm^3; tumor growth compared to control (4T1 breast tumor; i.v. daily 8 days, DM-PIT-1 0.4 mg/kg, DM-PIT-1-M 1 mg/kg, P<0.01): significantly attenuated tumor growth; tumor angiogenesis, CD31 loci (4T1 breast tumor; mouse, in vivo): marked decrease in cancer angiogenesis
Cc1cc(C)cc(C(=O)NC(=S)Nc2c(O)cc(C)c(Br)c2C)c1 [PIT-6, N-(3-Bromo-6-hydroxy-2,4-dimethylphenylcarbamothioyl)-3,5-dimethylbenzamide]	18.1 ± 3.1	> 200	> 200	12.6 ± 2.1	improved Akt potency and selectivity compared to PIT-1	164.5 to 166	–
Cc1cc(C)cc(C(=O)NC(=S)Nc2c(O)cc(C(F)(F)F)cc2C(F)(F)F)c1 [PIT-5, N-(2-Hydroxy-4,6-bis(trifluoromethyl)phenylcarbamothioyl)-3,5-dimethylbenzamide]	20.8 ± 2.5	> 200	> 200	18.8 ± 1.7	improved Akt potency and selectivity compared to PIT-1	167 to 168	–
CCN(CC)CCCCN1c2ccccc2Oc2ccc(Cl)cc21 [Akt inhibitor X]	–	–	–	–	–	–	plasma membrane translocation of Akt PH domain (Akt PH domain [4]): Neither Akt inhibitor X nor allosteric inhibitor VIII blocked membrane translocation; combination of Akt inhibitors VIII and X (U87MG cells [5]): no additive effect
TRAIL: Tumor necrosis factor (TNF)-related apoptosis-inducing ligand, 281 amino acid member of the TNF family of cytokines (protein, UniProt P50591 1-281, looked up) Tumor necrosis factor ligand …: MAMMEVQGGPSLGQTCVLIVIFTVLLQSLCVAVTYVYFTNELKQMQDKYSKSGIACFLKEDDSYWDPNDEESMNSPCWQVKWQLRQLVRKMILRTSEETISTVQEKQQNISPLVRERGPQRVAAHITGTRGRSNTLSSPNSKNEKALGRKINSWESSRSGHSFLSNLHLRNGELVIHEKGFYYIYSQTYFRFQEEIKENTKNDKQMVQYIYKYTSYPDPILLMKSARNSCWSKDAEYGLYSIYQGGIFELKENDRIFVSVTNEHLIDMDHEASFFGAFLVG	–	–	–	–	–	–	sensitivity of U87MG cells to TRAIL alone (U87MG cells [6]): entirely resistant
